This note sets out measurements from patent publication US20250109127A1, “METHODS OF USE OF PHENOXYPROPYLAMINE COMPOUNDS TO TREAT DEPRESSION” (Minerva Neurosciences, Inc., priority 2013, published 2025).

Molecules are shown by their SMILES. Values joined by “and” are separate entries in the source; they are usually repeats but may differ in a detail not shown here. Equal entries are not always repeated. Structures can show the parent of a compound that is named as a salt.

The subject of this test is norepinephrin release in the rat prefrontal cortex. In words: Microdialysis: norepinephrine release in prefrontal cortex after I.P. administration. As to conditions: for NOREPINEPHRIN (% of respective basal), individual animal: 0.3 mg/kg I.P., c2-c9 = R#11,12,18,23,29,30,17,24; for NOREPINEPHRIN (% of respective basal), individual animal / Norepinephrin release, individual animals: hydrochloride; for Norepinephrin release, MEAN / Norepinephrin release, individual animals: 3 mg/kg IP; for Norepinephrin release, MEAN: n = 8; for Norepinephrin release, individual animals: per animal R#15,16,21,22,27,28,09,10. The class given is in vivo. How it is done: The aim of the study was to evaluate, using microdialysis, the effects of an intraperitoneal (I.P.) administration in rats of three different doses of SON-117 on dopamine and its metabolites, serotonin and its metabolite (5-HIAA), and norepinephrine levels in prefrontal cortex.
Thirty-two adult male Wistar rats were used for the whole study (4 groups of eight animals planned for the study, Table 1).
Surgery was performed on rats weighing about 300 g at the beginning of the experiments. Rats were anaesthetized with Ketamine (50 mg/kg) & Xylazine (15 mg/kg) by intramuscular administration. The animals were placed in a stereotaxic apparatus in the flat-skull position at a constant setting of −3.3 mm between ear bars and the incisor bar. The animals were treated with a local anesthesic (xylocaine 1%, Astra Zeneca) and an analgesic (Temgesic, from Schering Plough, 0.05 mg/kg, s.c.). A rostrocaudal midline incision was made with a lancet to expose the dorsal skull surface. The “stereotaxic zero” was defined by the Bregma in accordance with Paxinos and Watson's atlas (1986). A hole was drilled in the skull with a drill and the meninges were pierced with a sterile needle to implant a CMA12 guide cannula which later received the dialysis probe.
Coordinates used for implanting guide cannula in prefrontal cortex from Bregma were anteroposterior 3.7 mm, mediolateral 0.8 mm, and dorsoventral −2 mm (top of the probe was at −5 mm). The guide cannula was fixed to the skull with two stainless steel screws (1.88 mm outside diameter) anchored. An application of dental cement was added. A plastic collar allowed each animal to be tethered to a Swivel assembly of the CMA 120 awake animal system. Following surgery, rats were kept in individual cages and allowed to recover for a minimum of 3-5 days before the experimentation. The rats were handled and put in plastic bowl for 10 min at least every day to habituate the animals to their new environment for the dialysis. An I.P. administration with saline was also performed every day.
Dialysis probes (CMA12/3 mm, membrane, 20 kD cut-off, Carnegie Medicine, Stockholm, Sweden), were carefully washed before inserting into the guide cannula. The wash was performed with the artificial cerebrospinal fluid (aCSF) medium (NaCl 147 mM, KCl 2.7 mM, CaCl2 1.2 mM, MgCl2 0.85 mM) at room temperature. The dialysis system was then equilibrated at 20° C. at a perfusion rate of 1 μl/min with a Carnegie pump (CMA100). All catheters (FEP tubing, internal volume of 1.2 μl/10 cm, and tubing adaptors) used for microdialysis were treated in the same conditions.
The probes duly prepared were inserted into the guide cannula and the CMA120 Swivel assembly secured to the animal using a plastic collar. Flow through the dialysis probe with aCSF was maintained at a rate of 1 μl/min during the whole experimentation. The first four fractions (corresponding to 2 hours) were discarded to avoid the effects of parenchymal disturbance and to ensure that an approximate steady-state level was reached. Fractions were then collected over a period of 8.5 h during which time the animals remained quiet. The dialysates were automatically collected with an autosampler (microfraction collector CMA 140, Carnegie Medicin) and stored at −80° C. until analysis. […] Perfusion was then maintained for 7 hours with aCSF. The dialysates (30 μl) were collected into 300 μl vials, transferred into dry ice and then kept frozen (−80° C.) until analysis. Frozen samples were shipped to a partner for analysis. At the end of the microdialysis study, a PBS with colored ink was perfused through the probe in order to visualize the dialyzed area.
Catecholamine assay: Concentrations of dopamine, DOPAC, HVA, 5-HIAA, 5-HT, and norepinephrin were determined for each sample by HPLC coupled with electrochemical detection. […]

As for `Cc1nnc(-c2cc3c(OC[C@@H](O)CN4CCC(c5ccc(Cl)c(Cl)c5)CC4)cccc3o2)o1` [SON-117, (S)-1-(4-(3,4-dichlorophenyl)piperidino)-3-(2-(5-methyl-1,3,4-oxadiazol-2-yl)benzo(b)furan-4-yloxy)-2-propanol hydrochloride], the “NOREPINEPHRIN (% of respective basal), individual animal” value (“NOREPINEPHRIN (% of respective basal)” for short) is, setting by setting: (T0-T30 min) 93.23 % of respective basal and 109.66 % of respective basal and 94.50 % of respective basal and 91.56 % of respective basal and 103.16 % of respective basal and 122.80 % of respective basal and 169.48 % of respective basal and 88.04 % of respective basal; (T30-T1 h) 104.42 % of respective basal and 107.28 % of respective basal and 98.29 % of respective basal and 99.12 % of respective basal and 108.78 % of respective basal and 113.81 % of respective basal and 113.33 % of respective basal and 88.14 % of respective basal; (T1 h 30-T2 h) 99.20 % of respective basal and 86.76 % of respective basal and 108.98 % of respective basal and 92.71 % of respective basal and 104.84 % of respective basal and 66.21 % of respective basal and 122.80 % of respective basal and 84.63 % of respective basal; (T1 h-T1 h 30) 86.88 % of respective basal and 98.78 % of respective basal and 112.17 % of respective basal and 98.26 % of respective basal and 98.75 % of respective basal and 106.99 % of respective basal and 111.81 % of respective basal and 90.76 % of respective basal; (T2 h 30-T3 h) 84.23 % of respective basal and 104.60 % of respective basal and 128.99 % of respective basal and 92.07 % of respective basal and 101.47 % of respective basal and 118.46 % of respective basal and 126.06 % of respective basal and 98.73 % of respective basal; (T2 h-T2 h 30) 76.65 % of respective basal and 101.56 % of respective basal and 126.15 % of respective basal and 88.09 % of respective basal and 101.06 % of respective basal and 105.86 % of respective basal and 113.08 % of respective basal and 89.61 % of respective basal. The “NOREPINEPHRIN (% of respective basal)” value by setting is: (T3 h 30-T4 h) 100.21 % of respective basal and 138.06 % of respective basal and 105.65 % of respective basal and 106.80 % of respective basal and 135.47 % of respective basal and 201.02 % of respective basal and 113.60 % of respective basal; (T3 h-T3 h 30) 120.36 % of respective basal and 139.04 % of respective basal and 95.95 % of respective basal and 93.13 % of respective basal and 129.61 % of respective basal and 137.11 % of respective basal and 99.05 % of respective basal; (T4 h 30-T5 h) 91.48 % of respective basal and 153.66 % of respective basal and 179.53 % of respective basal and 95.60 % of respective basal and 107.83 % of respective basal and 118.17 % of respective basal and 146.73 % of respective basal and 113.45 % of respective basal; (T4 h-T4 h 30) 88.77 % of respective basal and 125.81 % of respective basal and 155.70 % of respective basal and 105.70 % of respective basal and 109.87 % of respective basal and 112.18 % of respective basal and 148.00 % of respective basal and 108.96 % of respective basal; (T5 h 30-T6 h) 91.57 % of respective basal and 160.34 % of respective basal and 198.08 % of respective basal and 89.28 % of respective basal and 123.68 % of respective basal and 111.49 % of respective basal and 183.96 % of respective basal and 124.88 % of respective basal; (T5 h-T5 h 30) 62.74 % of respective basal and 157.36 % of respective basal and 184.76 % of respective basal and 91.16 % of respective basal and 116.17 % of respective basal and 125.90 % of respective basal and 153.13 % of respective basal and 108.22 % of respective basal. For the same molecule, the “NOREPINEPHRIN (% of respective basal)” value (T6 h-T6 h 30) was 107.74 % of respective basal and 153.11 % of respective basal and 204.06 % of respective basal and 115.67 % of respective basal and 145.69 % of respective basal and 126.68 % of respective basal. For the same molecule, the “Norepinephrin release, MEAN” value reads like this: (T0-T30 min) 95.03 % of respective basal; (T30-T1 h) 97.36 % of respective basal; (T1 h 30-T2 h) 89.60 % of respective basal; (T1 h-T1 h 30) 107.89 % of respective basal; (T2 h 30-T3 h) 89.71 % of respective basal; (T2 h-T2 h 30) 89.42 % of respective basal. In addition, the “Norepinephrin release, individual animals” value by setting is: (T30-T1 h) 88.36 % of respective basal and 115.03 % of respective basal and 81.23 % of respective basal and 99.91 % of respective basal and 84.13 % of respective basal and 101.13 % of respective basal and 112.87 % of respective basal and 96.25 % of respective basal; (T1 h 30-T2 h) 82.12 % of respective basal and 112.19 % of respective basal and 79.22 % of respective basal and 97.76 % of respective basal and 65.77 % of respective basal and 100.10 % of respective basal and 89.95 % of respective basal and 89.72 % of respective basal; (T1 h-T1 h 30) 172.07 % of respective basal and 112.74 % of respective basal and 81.36 % of respective basal and 103.59 % of respective basal and 89.22 % of respective basal and 99.07 % of respective basal and 110.12 % of respective basal and 94.94 % of respective basal; (T2 h 30-T3 h) 86.59 % of respective basal and 101.34 % of respective basal and 74.62 % of respective basal and 92.57 % of respective basal and 76.53 % of respective basal and 86.90 % of respective basal and 101.62 % of respective basal and 97.13 % of respective basal; (T2 h-T2 h 30) 76.71 % of respective basal and 108.71 % of respective basal and 69.68 % of respective basal and 89.57 % of respective basal and 80.18 % of respective basal and 97.07 % of respective basal and 98.74 % of respective basal and 94.71 % of respective basal.
